Test: Human HepG2 cell viability assay in 384 well format
Type: toxicity, cell-based
Parameters: dose 125 nL, time 70.5 hour; cytotoxicity at 70.5 h: concentration not given beside the values
Details: HepG2 cells, read-out: Inhibition

SMILES	cytotoxicity at 70.5 h
CN1C(=O)CCCC12CCCN(C(=O)c1cccc(C(F)(F)F)c1)C2 (centres undefined)	-6.35%
O=C([C@H]1CCCO1)N1CCC2(CCCN(CCOc3ccccc3)C2)C1 (some centres undefined)	20.8%
O=C1COC2(CCN(C(=O)c3ccoc3)CC2)CN1Cc1cccnc1	-6.92%
O=C(C1CCOCC1)N1CC[C@@H](O)[C@@H]1Cc1ccccc1	1.56%
CN(C)CCN1CCC2(CCN(C(=O)c3cccnc3)CC2)C1=O	-4.08%
CN1CC2(CCCCN2C(=O)c2ccsc2)CC1=O (centres undefined)	5.12%
O=C(C1CCCO1)N1CCC2(CC1)COCCN2CC1CC1 (centres undefined)	2.48%
Cc1nc(N2CCCC2)nc2c1CN(C(=O)N(C)C)CC2	-1.53%
COc1cc(CN2C[C@@H]3CNC(=O)[C@H](C)[C@@H]3C2)cc(OC)c1	-9.46%
CN(CC1CC1)c1ccc2ccc(C(=O)NC3CCCCC3)cn12	12.9%
c1cncc(-c2ccc3c(c2)C2(CCNCC2)CC3)c1	52.4%
CCN1C(=O)C2(CCOCC2)c2cc(NC(=O)COC)ccc21	14.9%
COCC1CN(C(=O)c2cccc(C)n2)Cc2ncnn2C1 (centres undefined)	17.7%
COCC1CN(C(=O)c2cnc(C)cn2)Cc2ncnn2C1 (centres undefined)	19%
CN1CCN(C(=O)N2CCCC2)Cc2cccnc21	-6.35%
CCN1C(=O)C2(CCOCC2)c2cc(NC(=O)c3cnoc3C)ccc21	-6.08%
Cc1occc1C(=O)N1CCC2(CCN(Cc3nccs3)CC2)C1	-5.43%
Cc1nc([C@@H]2C[C@@H]3CCN(Cc4cnn(C)c4)C[C@H]3O2)sc1C	-5.41%
Cn1cc(CN2CC[C@H]3C[C@@H](c4nc(C5CC5)cs4)O[C@@H]3C2)cn1	5.37%
CN(C)C(=O)CO[C@@H]1CN(Cc2ccccc2)[C@@H]2CCCO[C@@H]21	6.93%
O=C(O)c1ccc2c(c1)C1(CCCCC1)CN2C(=O)c1cccs1	-4.48%
O=C(c1ccsc1)N1C[C@H]2CN(Cc3cccc(F)c3)C(=O)[C@H]2C1	-1.45%
COCCC(=O)NCC1Cn2nnc(-c3cccc(F)c3)c2CO1 (centres undefined)	-0.67%
Cn1ccnc1CN1CC2(CCN(Cc3ccncc3)C2)C1	-0.993%
Cc1nc(-c2nc(C(=O)N3CCOCC3)c3ccccn23)cn1C(C)C	-5.18%
Cc1cccc(CN2C[C@@H]3CN(C(=O)c4cnccn4)C[C@@H]3C2=O)c1	-2.3%

SMILES	cytotoxicity at 70.5 h
O=C(c1ccoc1)N1CCC2(C1)CN(c1nccs1)C2	-2.55%
Cc1ccc2c(c1)CCC21CCN(CCO)CC1	-1.71%
COCC(=O)N1C[C@H]2CC[C@@]3(N=C(c4ccccc4)NC3=O)[C@H]2C1	-3.3%
O=C(N1CCCC1)N1C[C@H]2CC[C@@]3(N=C(c4ccccc4)NC3=O)[C@H]2C1	12.6%
Cc1cnc(C(=O)N2C[C@@H]3[C@@H](C2)OCC(=O)N3CC2CCCC2)cn1	15.5%
O=C(C1CCOC1)N1CCc2ncnc(-c3cccnc3)c2CC1 (centres undefined)	15.9%
CC(=O)N1[C@H](Cn2cncn2)C[C@@H]2CN(C(=O)NC3CC3)CC[C@@H]21	5.13%
O=C(C1CCOC1)N1CCc2ncnc(C3CC3)c2CC1 (centres undefined)	0.686%
O=C(c1cnccn1)N1C[C@@H]2[C@@H](C1)OCC(=O)N2CC1CCCC1	1.12%
CN1CCN(Cc2cn3c(n2)CN(C(=O)N2CCCC2)CC3)CC1	0.892%
CCN1C[C@H]2CCN(c3ncccn3)CC[C@H]2S1(=O)=O	1.89%
O=C(c1ccco1)N1CCCC2(CN(Cc3ccoc3)CCO2)C1 (centres undefined)	-0.421%
O=C([C@H]1COC[C@H]2CN(C3CCOCC3)C[C@H]21)N1CCCCO1	4.24%
O=C(NCC1CC1)C1CN(C(=O)Cc2cccs2)CC12CCOCC2 (centres undefined)	1.89%
CCOCC1CN(C(=O)c2cccs2)Cc2nn(C)cc21 (centres undefined)	-2.33%
Cc1cnc(C(=O)N2C[C@H]3CCCC(OCc4cccnc4)[C@H]3C2)cn1 (some centres undefined)	-3.45%
COCc1cnc2n1CCN(C(=O)C1=CCCCC1)C2C (centres undefined)	17.6%
COc1ncccc1C(=O)N1CC[C@H]2C[C@@H](C)O[C@@H]2C1	-21.5%
O=C1CCC2(CCN(c3ncc(F)cn3)CC2)N1CCN1CCCC1	25.9%
CCOC(=O)N1CC2(CCNCC2)c2cc(Cl)ccc21	-11.6%
CC(C)C[C@H](N)C(=O)N1CC2(CCNCC2)c2cc(Cl)ccc21	3.38%
CC(C)CC(=O)N1C[C@@H]2CCN(c3cnccn3)C[C@@H]2C1	-5.35%
CC(=O)N1CCN(Cc2ccc(F)cc2)CC2(CC(=O)N(C)C2)C1 (centres undefined)	23.3%
CCN1CCOCC12CCN(C(=O)C1CCC1)CC2	14.1%
CC(=O)N1CCN(Cc2ccsc2)CC2(CC(=O)N(C)C2)C1 (centres undefined)	-12.2%
Cc1cccc(CN2C(=O)CCC23CCN(C(=O)NC(C)C)CC3)n1	-2.54%

SMILES	cytotoxicity at 70.5 h
CN1CCN(C)C2(CCN(Cc3ccsc3)CC2)C1=O	16.8%
C[C@H]1C(=O)NC[C@H]2CN(Cc3cccc(F)c3)C[C@H]21	-8.78%
Cn1cc(CN2C[C@H]3CN(c4cncnc4)C(=O)[C@H]3C2)cn1	-2.54%
COc1ccc(CN2C[C@H]3CN(c4cncnc4)C(=O)[C@H]3C2)cc1	-5.39%
CN1CCN(C(=O)Cc2ccc(F)cc2)Cc2cccnc21	5.52%
Cc1nc(CN2CCC3(CCN(C(=O)c4ccoc4C)CC3)C2)cs1	-6.97%
Cc1cnc(C(=O)N2CCCn3c(nc(CN(C)C)cc3=O)C2)cn1	9.93%
CNC(=O)[C@H]1C[C@@H]2CN(S(=O)(=O)Cc3ccccc3)C[C@@H]2N1C	-3.87%
COc1ccc(CN2CCOC3(CCCN(C(C)=O)C3)C2)cc1 (centres undefined)	-1.06%
Cc1cnc(N2CC3(CCN(C(=O)c4cccnc4)C3)C2)nc1	-4.83%
Cc1cccc(CN2C[C@@H]3CN(C(=O)c4ccsc4)C[C@@H]3C2=O)n1	-2.24%
O=C([C@@H]1COC[C@H]2CN(C3CCOCC3)C[C@H]21)N1CCCO1	14.5%
O=C1CC2(CCCCN2C(=O)c2ccco2)CN1c1cccnc1 (centres undefined)	15.4%
Cn1cccc1C(=O)N1CCCCC12CC(=O)N(c1cccnc1)C2 (centres undefined)	-3.4%
COc1cccc(CN2CCC3(CCN(C(=O)C4CC=CC4)CC3)C2)c1	-3.83%
CC(=O)NCC(=O)N1CCn2cc(CN3CCCCC3)nc2C1	-1.68%
O=C(C1CC1)N1CCC2(CCN(Cc3cccc(F)c3)CC2)CC1	-0.144%
CC(=O)N1[C@H](Cn2cncn2)C[C@@H]2CN(c3ncc(F)cn3)CC[C@@H]21	-0.528%
O=C([C@H]1COC[C@H]2CN(C3CCOCC3)C[C@H]21)N1CCCO1	-1.26%
O=C(c1ccco1)N1CCCC2(CN(Cc3ccsc3)CCO2)C1 (centres undefined)	-5.26%
O=C(c1ccco1)N1CCCC2(CN(Cc3cccs3)CCO2)C1 (centres undefined)	1.5%
COCC(=O)N1CCO[C@H]2[C@H](OCc3cccnc3)CC[C@@H]21	1.22%
CN1CCN(C(=O)NC2CCCC2)Cc2cccnc21	-4.32%
Cc1nc(CN2CCOCC3(CCCN(c4cnccn4)C3)C2)cs1 (centres undefined)	-2.38%
O=C(NC[C@]12COC[C@H]1CN(Cc1nccs1)C2)N1CCCC1	-13.4%
O=C(C[C@@H]1COC[C@H]2CN(Cc3ccc(F)cc3)C[C@@H]12)N1CCCCO1	-14.5%

SMILES	cytotoxicity at 70.5 h
COC1COC2(CCN(Cc3ccccc3Cl)CC2)C1 (centres undefined)	-14.5%
O=C1CC[C@H]2[C@H](CCN2C(=O)C2CCOCC2)N1Cc1ccncc1	-15.6%
CCN1CC2(CC1=O)CN(Cc1ccccn1)CCN(C(C)=O)C2 (centres undefined)	-10.2%
CC(C)C(=O)N1CCN(Cc2ccccn2)CC2(CC(=O)N(C)C2)C1 (centres undefined)	-9.37%
CN(C)CCN1C(=O)CCC12CCCN(C(=O)c1cccnc1)CC2 (centres undefined)	-5.29%
CN(C)CCN1CCC2(CCN(C(=O)c3ccncc3)CC2)C1=O	-7.69%
CC(=O)N1CCN(Cc2ccncc2)CC2(CC(=O)N(C)C2)C1 (centres undefined)	-7.88%
Cc1nc(CN2CCC3(CC2)NC(=O)CC3c2ccncc2)cs1 (centres undefined)	-5.12%
Cc1ccc(CN2CCC3(CC2)C(=O)N(CC(C)C)CCN3C)s1	22.7%
CCN1CCN(C)C2(CCN(Cc3ccsc3)CC2)C1=O	-9.43%
Cc1noc(C)c1CN1CCC2(CC1)CN(c1ccccn1)CCO2	17.3%
CN1CCN(Cc2cccnc2)C2(CCN(c3ncccn3)C2)C1=O (centres undefined)	-5.32%
Cc1cnc(N2CCC3(C2)C(=O)N(C)CCN3Cc2cccnc2)nc1 (centres undefined)	-5.14%
COc1ccc(CN2CCC3(CCN(c4cccnc4)C3=O)C2)cc1 (centres undefined)	1.92%
c1cncc(COCc2nnc3n2CCN(CC2CC2)C3)c1	0.791%
Cc1ncsc1CN1CCO[C@H]2[C@H](Oc3ccccn3)CC[C@@H]21	-1.48%
Fc1cccnc1O[C@@H]1CC[C@H]2[C@H]1OCCN2Cc1nccs1	-2.76%
CN(C)[C@@H]1CCN(c2ncc(F)cn2)[C@H]1Cc1ccccc1	-4.36%
COCCC(=O)N1CCn2cc(CN3CCN(C)CC3)nc2C1	0.542%
Cc1cccc(CO[C@@H]2CC[C@H]3[C@H]2OCCN3Cc2nccs2)n1	-0.937%
CN(C)[C@@H]1CCN(c2ncc(F)cn2)[C@H]1Cc1cccnc1	17.3%
Cc1cnc(N2CC[C@H]3[C@@H]2CCC(=O)N3c2cccnc2)nc1	-2.59%
c1ccc(CN2CCCC3(CCN(Cc4cccs4)C3)C2)nc1 (centres undefined)	-7.54%
CN1CCN(Cc2cccnc2)C2(CCN(Cc3ccoc3)C2)C1=O (centres undefined)	20.4%
COc1ncccc1CN1CCC2(CC1)CN(c1ccccn1)CCO2	-6.12%
c1ccc(CO[C@@H]2CO[C@@]3(CCN(Cc4ccccn4)C3)C2)nc1	-16%
